SMILES strings stand for the structures.

This test has as its target T1, 1-deoxy-D-xylulose 5-phosphate reductoisomerase (Escherichia coli K-12, UniProt P45568).
T1 sequence (P45568 whole entry): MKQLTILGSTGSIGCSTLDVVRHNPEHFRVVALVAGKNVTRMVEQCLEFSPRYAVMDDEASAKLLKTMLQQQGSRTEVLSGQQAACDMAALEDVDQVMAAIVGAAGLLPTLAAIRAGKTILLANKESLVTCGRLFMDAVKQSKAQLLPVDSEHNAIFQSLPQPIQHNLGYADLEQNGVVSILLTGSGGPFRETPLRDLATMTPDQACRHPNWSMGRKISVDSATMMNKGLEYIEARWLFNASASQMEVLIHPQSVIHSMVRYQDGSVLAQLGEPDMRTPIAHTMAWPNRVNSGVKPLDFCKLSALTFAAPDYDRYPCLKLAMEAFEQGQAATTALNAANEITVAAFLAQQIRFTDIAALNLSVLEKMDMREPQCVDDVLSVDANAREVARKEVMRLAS
Kind of test: Inhibitory concentration against DOXP reductoisomerase.

For `O=C(NCC(=O)N(O)CCCP(=O)(O)O)c1ccc(OC(F)(F)F)cc1`, the IC50 (commonly the point on the concentration scale where inhibition reaches its midpoint) was 5.13 µM. This counts as single-digit micromolar. On to `O=CN(O)CC(Cc1ccccc1)CP(=O)(O)O` (stereo unspecified), for which 6.46 µM corresponded to half-maximal inhibition (IC50). `COc1ccc(CC(=O)NCC(=O)N(O)CCCP(=O)(O)O)cc1OC` showed an IC50 of 14.1 µM.

As for `CC(=O)N(O)C/C=C/P(=O)(O)O`, it took 0.0646 µM to reach half-maximal inhibition (IC50).

In turn, `CC(=O)N(O)C1CCC(P(=O)(O)O)C1` (stereo unspecified) showed an IC50 of 2.34 µM. `O=C(CNCP(=O)(O)O)NO` had a concentration for half-maximal inhibition (IC50) of 16.2 µM.

In turn, `CC(C)C(CCN(O)C=O)P(=O)(O)O` (stereo unspecified) showed an IC50 of 6.61 µM. As to `O=C(NCC(=O)N(O)CCCP(=O)(O)O)C1CC1`, it took 7.08 µM to reach half-maximal inhibition (IC50). This IC50 and that of the compound before are within 1.5-fold of each other. Consider `CCCC(CCN(O)C=O)P(=O)(O)O` (stereo unspecified), for which inhibition was half-maximal at 8.13 µM (IC50).

The compound `O=C(c1ccccc1O)N(O)CCCP(=O)(O)O` had an IC50 of 1.82 µM. In the case of `O=C(N(O)CCCP(=O)(O)O)C(F)(F)F` it was 14.1 µM; in that of `CCC(C(=O)NCC(=O)N(O)CCCP(=O)(O)O)c1ccccc1` (stereo unspecified), 20 µM. The compound `O=C(CCCOc1ccccc1)NCC(=O)N(O)CCCP(=O)(O)O` gave an IC50 of 1 µM. This IC50 is about 20-fold lower than that of the compound before. `NCCCC(=O)N(O)CCCP(=O)(O)O` had an IC50 of 25.7 µM. Consider `NCCC(=O)N(O)CCCP(=O)(O)O`, for which the 50% inhibitory concentration (IC50) was 15.8 µM. Under `CC(=O)N(O)CCCP(=O)(O)O` [FR-900098] stands 0.0282 µM; under `NCCCCCC(=O)N(O)CCCP(=O)(O)O`, 40.7 µM.

As for `CN(CC(=O)NO)CP(=O)(O)O`, the IC50 was 31.6 µM. This IC50 and that of the compound before are within 1.5-fold of each other. For `CCCC(CCN(O)C(C)=O)P(=O)(O)O` (stereo unspecified), the IC50 is 6.61 µM.

For `O=C(CCc1ccccc1)N(O)CCCP(=O)(O)O`, the IC50 is 50.1 µM.

`O=C(CCCP(=O)(O)O)NO` showed an IC50 of 0.257 µM. The compound `O=C(CCCc1c[nH]c2ccccc12)NCC(=O)N(O)CCCP(=O)(O)O` had an IC50 of 17 µM. On to `CCCCCCCC(=O)N(O)CCCP(=O)(O)O`, for which 1.7 µM corresponded to half-maximal inhibition (IC50).

`NC(CCP(=O)(O)O)C(=O)NO` (stereo unspecified) gave an IC50 of 9.77 µM. In the case of `CCOC(=O)C(=O)N(O)C1CCC(P(=O)(O)O)C1` (stereo unspecified) it was 15.8 µM. In the case of `O=C(c1cccc2ccccc12)N(O)CCCP(=O)(O)O` it was 0.229 µM; in that of `CC(=O)N(O)CCC(C)P(=O)(O)O` (stereo unspecified), 0.0537 µM; in that of `CCC(CCN(O)C=O)P(=O)(O)O` (stereo unspecified), 1.78 µM.

In turn, `O=C(CN(Cc1ccccc1)CP(=O)(O)O)NO` gave an IC50 of 1.82 µM. `O=C(C(Cl)Cl)N(O)CCCP(=O)(O)O` had an IC50 of 0.178 µM. As to `COC(=O)c1ccccc1C(=O)N(O)CCCP(=O)(O)O`, the IC50 was 100 µM. With `O=C(c1ccccc1)N(O)CCCP(=O)(O)O`, the IC50 is 0.1 µM. Compound `CC(C)CC(=O)N(O)CCCP(=O)(O)O` showed an IC50 of 24 µM. Against the preceding compound, the IC50 is about 240-fold higher. As to `O=C(c1ccc(-c2ccccc2)cc1)N(O)CCCP(=O)(O)O`, the IC50 is 2.4 µM.

With `O=C(c1ccccc1O)N(O)C1CCC(P(=O)(O)O)C1` (stereo unspecified), the concentration for half-maximal inhibition (IC50) is 50.1 µM. Compared with the last compound, the IC50 is about 21-fold higher. Take `CS(=O)(=O)N(O)CCCP(=O)(O)O`: the IC50 was 38 µM. `CC(=O)N(O)CC(C)CP(=O)(O)O` (stereo unspecified) had an IC50 of 0.646 µM. This IC50 lies about 59-fold lower than the previous one. Under `O=C(C1CC1)N(O)CCCP(=O)(O)O` stands 36.3 µM; under `CC(O)CC(=O)N(O)CCCP(=O)(O)O` (stereo unspecified), 50.1 µM. In the case of `CCC(CCN(O)C(C)=O)P(=O)(O)O` (stereo unspecified) it was 0.708 µM. Compound `CC(C)(C)C(=O)N(O)CCCP(=O)(O)O` gave a concentration for half-maximal inhibition (IC50) of 11 µM.
